{
  "source": "patent US9095653B2",
  "about": "“Method for the timed dosage of medicaments” (BAYER INTELLECTUAL PROPERTY GMBH, priority 2004, dated 2015)",
  "key": {"[1]": {"assay": "Lipophilicity (LogMA), substance input parameter for PK-Sim", "assay_type": "physicochemical"}, "[2]": {"assay": "Solubility, substance input parameter", "assay_type": "physicochemical", "details": "input parameter for PK-Sim"}, "[3]": {"assay": "Plasma clearance adapted in PK-Sim simulation to experimental literature concentration-time profiles", "assay_type": "in vivo, humans", "details": "human, read-out: plasma clearance CL", "method": "Drug Dispos. 20, 417-419 (1999)) and a muscle concentration-time profile from the literature (M. Müller, B. v. Osten, R. Schmid, E. Piegler, I. Gerngross, H. Buchegger, H. G. Eichler: “Theophylline kinetics in peripheral tissues in vivo in humans”, Naunyn-Schmiedeberg's Arch. Pharmacol. 352, 438-441 (1995)) (FIG. 2).\nThe plasma clearance here is CL=0.40 ml/min/kg. (source: [12]) • b) Intravenous infusion of 240 mg over 10 minutes. […] (source: [13]) • c) Peroral administration of 200 mg of an immediately releasing formulation (mean and standard deviation of three bioequivalent immediate release capsules)."}, "[4]": {"details": "average value for an adult human; cited from earlier work"}, "[5]": {"details": "cited from earlier work"}},
  "note": "Where two headings read alike, the source gives them in different places.",
  "data": [
    {"smiles": "Cn1c(=O)c2[nH]cnc2n(C)c1=O", "note": "[Theophylline]", "values": [
      {"measurement": "Lipophilicity (LogMA)", "setting": "[1]", "value": "−0.2"},
      {"measurement": "solubility", "setting": "[2]", "value": 2800, "unit": "µg/mL"},
      {"measurement": "clearance", "setting": "[3]; intravenous infusion of 5.58 mg/kg over 20 minutes, adapted to experimental data (FIG. 2a)", "value": 0.4, "unit": "mL/min/kg"},
      {"measurement": "clearance", "setting": "[3]; intravenous infusion of 240 mg over 10 minutes, adapted to experimental data (FIG. 2b)", "value": 0.25, "unit": "mL/min/kg"},
      {"measurement": "clearance", "setting": "[3]; oral, peroral administration of 200 mg immediately releasing formulation, adapted to experimental data (FIG. 2c)", "value": 0.5, "unit": "mL/min/kg"},
      {"measurement": "Free plasma fraction", "setting": "[4]", "value": 59, "unit": "%"},
      {"measurement": "plasma concentration below which a sufficient anti-asthmatic effect is not generally achieved", "setting": "[5]", "value": "below 5 mg/l"}
    ]}
  ]
}
